Source: PubChem BioAssay (NCI)
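Grown in 96-well plates, cells were treated for 48 hours with each compound at five concentrations. Insufficient inhibition: endpoint recorded as highest concentration tested. Abbreviation: GI50, concentration required for 50% inhibition of growth. TGI: concentration producing complete growth inhibition.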

How the values were obtained:
Assay in all cases: NCI tumour cell line growth inhibition, 48 h
SF-268 CNS = system: SF-268 CNS
NCI-H226 lung = system: NCI-H226 lung
U251 CNS = system: U251 CNS
OVCAR-8 ovarian = system: OVCAR-8 ovarian
A549 NSCLC = system: A549 NSCLC
KM12 colon = system: KM12 colon
MOLT-4 leukemia = system: MOLT-4 leukemia
A498 renal = system: A498 renal
K-562 leukemia = system: K-562 leukemia
SK-MEL-5 melanoma = system: SK-MEL-5 melanoma

SMILES | GI50 (SF-268 CNS) [µM] | TGI (SF-268 CNS) [µM] | GI50 (NCI-H226 lung) [µM] | TGI (NCI-H226 lung) [µM] | GI50 (U251 CNS) [µM] | TGI (U251 CNS) [µM] | GI50 (OVCAR-8 ovarian) [µM] | TGI (OVCAR-8 ovarian) [µM] | GI50 (A549 NSCLC) [µM] | TGI (A549 NSCLC) [µM] | GI50 (KM12 colon) [µM] | TGI (KM12 colon) [µM] | GI50 (MOLT-4 leukemia) [µM] | TGI (MOLT-4 leukemia) [µM] | GI50 (A498 renal) [µM] | TGI (A498 renal) [µM] | GI50 (K-562 leukemia) [µM] | TGI (K-562 leukemia) [µM] | GI50 (SK-MEL-5 melanoma) [µM] | TGI (SK-MEL-5 melanoma) [µM]
Cc1ccc(Nc2[nH]c(C(=O)c3ccc(Cl)cc3)c(N)c2C(=S)Nc2ccccc2)nc1 | 32.7 | > 100 | 26 | 91.3 | 26.8 | > 100 | 22 | 97.3 | 37.7 | > 100 | 16.8 | 54.9 | 56.3 | > 100 | 23.4 | 61.8 | 45.4 | > 100 | 14 | 33.7
CCC(C(=O)c1cccs1)C(O)(C(F)(F)F)C(F)(F)F (stereo not given) | – | > 100 | – | > 100 | – | > 100 | – | > 100 | – | > 100 | – | > 100 | – | > 100 | – | > 100 | – | > 100 | – | > 100
Fc1c[c-]c(-c2ccccn2)c(F)c1.[CH3-].[Pt+2].c1ccc([PH+](c2ccccc2)c2ccccn2)cc1 | 1.89 | 5.18 | 1.73 | 3.8 | 1.88 | 6.02 | 2.25 | > 100 | 2.66 | > 100 | 2.53 | 6.49 | 1.04 | > 100 | 1.48 | 4.06 | 1.78 | > 100 | 1.6 | 3
O=C(CCc1ccco1)NC1CCN(CC2(c3ccc(Cl)cc3)CCC2)CC1 | 15.1 | 30.7 | 20.8 | 60.2 | 13.1 | 26.4 | 14.5 | 30.1 | 14.6 | 32.5 | 15.3 | 31.5 | 8.37 | 32.9 | 0.0318 | 11.9 | 2.17 | 4.62 | 15.2 | 28.7
COc1cccc2c1nc1cccc(OC)c1[n+]2[O-] | 2.65 | 13.8 | 10.6 | 23.8 | 6.83 | 21.3 | 4.4 | 25 | 7.8 | 38.9 | 11.6 | 28.4 | 0.46 | 2.62 | 2.87 | 16.2 | 11.5 | 26.6 | 6.96 | 20
CCc1nc(-n2c(CC)nc3ccccc3c2=O)nc(N)c1-c1ccc(Cl)cc1 | > 40.4 | > 100 | > 100 | > 100 | > 100 | > 100 | 6.65 | > 100 | 2.38 | > 100 | 38.5 | > 100 | 73.3 | > 100 | 27.2 | > 94.5 | 17.6 | > 100 | 6.84 | > 100
COc1cc([N+](=O)[O-])c(S(=O)(=O)O)cc1N | – | > 100 | – | > 100 | – | > 100 | – | > 100 | – | > 100 | – | > 100 | – | > 100 | – | > 100 | – | > 100 | – | > 100
COc1ccccc1-c1ccc2nc(NC(=O)Nc3cc(C(F)(F)F)cc(C(F)(F)F)c3)sc2c1 | 2.86 | 12.2 | 2.16 | 5.67 | 2.31 | 10.3 | 3.04 | 11.2 | 3.19 | 11.8 | 2.07 | 6.45 | 1.58 | 7.24 | 1.64 | 3.9 | 1.54 | 8.95 | 1.57 | 2.98
